Test results published in paper PMC8532147, “Dual Stimuli-Responsive Dynamic Covalent Peptide Tags: Toward Sequence-Controlled Release in Tumor-like Microenvironments” (Journal of the American Chemical Society, 2021).
“Also recorded” adds a separate entry of the source. One block for each molecule: values may come before it. Square brackets hold non-standard residues; d marks the D form. Ends that are not written are not given here. Peptide text beside a SMILES is read from it. Phe(4-B(OH)2) = N[C@@H](Cc1ccc(B(O)O)cc1)C(=O)O; Dopa = N[C@@H](Cc1ccc(O)c(O)c1)C(=O)O

B2: OSCSO (peptide)
chain: [Dopa]SCS[Dopa]

How the values were obtained:
[1] = system: A549 cells; assay: Cell uptake by confocal microscopy; format: cell-based, human; conditions: 24 h, 37 °C
Procedure: For cell uptake studies, A549 cell line was selected, which is a model of alveolar Type II pulmonary epithelium.[35] The uptake was performed under two conditions to test the robustness of the resultant conjugate, which represents the extracellular conditions found in different stages of cancer progression.[36] Internalization of the conjugate was first studied in standard cell culture media (∼ neutral pH). A solution of DL488 ≃ TAT was applied directly to A549 cells to a final concentration of 10 μM, without any further workup or further purification. As additional controls, (1) a conjugate DL488-BSCSB ≃ OSCSO incubated with free TAT sequence and (2) a conjugate without the disulfide bridge (DL488-BSGSB) ∼ (TAT-OSCSO) where cysteine was replaced by glycine in one of the sequences were both applied at 10 μM (Figure 7a). […] Next, we proceeded to verify that the peptide tags are robust even under metastatic tumor-like microenvironment, where acidosis is a hallmark. Consequently, the low extracellular pH can result in a more invasive phenotype (Figure 7c), which is more challenging to treat.[28] First, A549 cancer cells were subjected to acute acidification to derive cells cultured at pH 6.4.[37]−[39] Thereafter DL488 ≃ TAT and controls 1 and 2 were applied at 10 μM for 24 h. […] Therefore, the linker chemistry can potentially be adopted for more invasive cancer phenotypes.
Sample preparation protocol. 20 µL of 2 mM solutions of DL488-BSCSB and either OSCSO, OSCSO and TAT or TAT-OSCSO were mixed together to obtain 40 µL of 1 mM solution of preassembled conjugate (in 10 mM phosphate buffer pH = 8 with 10% DMSO). The conjugate was subsequently oxidized by addition of 1 µL 75 mM potassium peroxymonosulfate (Oxone®) solution in 100 mM PB, pH = 7.4 to obtain its final concentration as 1.8 mM. Prepared conjugate was used directly for the cell studies without […]
Cell culture. The human cell line A549 from adenocarcinomic lung tissue (American Type Culture Collection, Manassas, VA, US) was cultured in Dulbecco's modified Eagle medium (DMEM 4.5 g/L D-Glucose, L-Glutamine; Gibco by ThermoFisher Scientific, Germany) supplemented with 10% fetal calf serum (FCS; Sigma Aldrich, Germany) and 1% Penicillin/Streptomycin (Invitrogen, Germany) at a humified atmosphere with 37 °C and 5% CO2 . Fresh culture medium was replaced every two days and cells were subcultured after reaching 80% confluence.
Evaluation of cell uptake. A549 cells were detached by TrypLE Select (Gibco by ThermoFisher Scientific, Germany) and centrifuged 5 min at 1000 rpm. […]

[2] = system: BSCSB; assay: Isothermal titration calorimetry (ITC), BSCSB titrated into the ligand peptide; format: binding; conditions: for binding in ITC at pH 7.4 (ligand comparison): pH 7.4, 25 °C, BSCSB titrated to YSCSY or OSCSO as ligand
Procedure: The pH-reversible interactions of boronic acid and catechol groups, the formation of disulfides, as well as the responsiveness of the bis-peptide system were further investigated under different conditions (Figure 5). First, the boronic acid condensation with the complementary catechol and the thermodynamic properties were assessed under pH conditions that are relevant to physiological conditions, i.e., pH = 7.4 typical for extracellular environment of normal tissues and pH 6 for acidic intracellular compartments such as endosomes.[28] Equimolar concentrations of the reacting tags were applied to investigate the thermodynamic parameters associated with the formation of the heterodimer. DyLight488 labeled peptide (DL488-BSCSB) was synthesized by connecting the commercially available NHS-ester of this dye to the N-terminus of the BSCSB sequence to enable a microscale thermophoresis (MST) experiment, in which the dissociation constant could be determined. MST measurements were performed by titrating DL488-BSCSB (2 μM) against the complementary OSCSO peptide binding partner (76 nM to 5 mM). […] Such an improvement could be explained by the lack of electrostatic repulsion due to the presence of the electroneutral serine (at physiological pH) in the sequence. […] To assess the binding constant at physiological pH and to understand the type of complex formed, isothermal titration calorimetry (ITC) measurements were performed. The raw data were plotted as heat rate versus time at pH = 6 and 7.4. (SI, Figure S16). […]
Additionally the same amount of BSCSB solution was titrated into pure water to determine the heat of dilution for reference. As a control another sequence was checked for binding with L-tyrosines instead of L-DOPA and measured as before mentioned. […]
Figure S 16: ITC titrations performed at a) pH = 7.4 and b) 6.0, showing the heat rate signals after base line correction. No heat change different from the dilution (blank) was detected for pH = 6.0. […]

[3] = quoted as stand-in for the pKa of 4-borono-phenylalanine; cited from earlier work
[4] = molecular target: B2; assay: ITC; BSCSB titrated to OSCSO (2Red); 100 mM phosphate buffer pH 7.4; independent binding model fit; conditions: both partners purified
[5] = molecular target: T1, DyLight488 labeled peptide DL488-BSCSB; assay: MST; DL488-BSCSB (2 μM) held constant, OSCSO titrated (76 nM to 5 mM); 100 mM phosphate buffer pH 6.0 in the presence of TCEP; the legend of Figure 5b calls it a fluorescence quenching assay; conditions: both partners purified
T1 chain: DyLight488-[Phe(4-B(OH)2)]SCS[Phe(4-B(OH)2)]

[6] = molecular target: T1, DyLight488 labeled peptide DL488-BSCSB; assay: MST; DL488-BSCSB (2 μM) held constant, OSCSO titrated (76 nM to 5 mM); 100 mM phosphate buffer pH 7.4 in the presence of TCEP; the legend of Figure 5b calls it a fluorescence quenching assay; conditions: both partners purified
[7] = standard cell culture media (∼ neutral pH), 10 μM, triplicates

Molecule: DL488-BSCSB≃OSCSO-TAT (bicyclic or more) [DL488 ≃ TAT, dual responsive conjugate of TAT-OSCSO and DL488-BSCSB after addition of Oxone]
uptake in A549 cells [1, 7]: significant uptake

binding in ITC at pH 7.4 (ligand comparison) [2]: No binding
Molecule: YSCSY

Molecule: DL488-BSCSB≃OSCSO+TAT (bicyclic or more) [control 1]
uptake in A549 cells [1, 7]: no uptake was observed

Molecule: (DL488-BSGSB) ∼ (TAT-OSCSO) (sidechain bridge or staple) [control 2]
uptake in A549 cells ([1]; acidic media pH 6.4, 10 μM, no CO2, triplicates): not internalized
uptake in A549 cells [1, 7]: no uptake was observed

Molecule: Cc1ccc(B(O)O)cc1 [4-methylphenylboronic acid]
pKa [3]: ~8.9

Molecule: NC(=O)[C@H](Cc1ccc(O)c(O)c1)NC(=O)[C@H](CO)NC(=O)[C@H](CS)NC(=O)[C@H](CO)NC(=O)[C@@H](N)Cc1ccc(O)c(O)c1 [OSCSO] (H-[Dopa]SCS[Dopa]-NH2)
binding in ITC at pH 6 ([2]; pH 6.0, 100 mM phosphate buffer, 25 °C, BSCSB titrated into OSCSO, compared with heat of dilution): No heat change different from the dilution; also recorded: lack of binding
binding in ITC at pH 7.4 (ligand comparison) [2]: significant heat change

Kd [4]: 1800 ± 400 nM
stoichiometry N [4]: 1.2 ± 0.1
B1: BSCSB (peptide)
chain: [Phe(4-B(OH)2)]SCS[Phe(4-B(OH)2)]

Molecule: B2
Kd [5]: > 440 µM
Kd [6]: 1800 ± 400 nM
